Assay results reported in article PMC7023430, “4-Aminobenzoic Acid Derivatives: Converting Folate Precursor to Antimicrobial and Cytotoxic Agents” (Biomolecules, 2019).
≈ marks a conversion by molar mass, not a printed value. Like-named read-outs stand apart in the source and are kept apart here.

Tests used:
[1] = system: M. kansasii 6509/96 (clinical isolate); assay: Antimycobacterial micromethod in Šula's medium, M. kansasii 6509/96; format: cell-based; conditions: Mycobacterium kansasii
[2] = system: ESBL-positive Klebsiella pneumoniae J 14368/08
[3] = system: Candida albicans ATCC 44859; assay: Antifungal microdilution broth method, C. albicans; format: cell-based
Outline: (§1)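 MIC by visual endpoint reading after twofold serial dilution of DMSO-dissolved compounds in RPMI-1640 (L-glutamine, 2% glucose, pH 7.0 with MOPS). Method follows EUCAST instructions, slightly modified; duplicates required agreement within one dilution step.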

[4] = system: methicillin-resistant Staphylococcus aureus ATCC 43300, CCM 4750 (MRSA); assay: Antibacterial microdilution broth method, MRSA; format: cell-based; conditions: Staphylococcus aureus
[5] = system: Pseudomonas aeruginosa ATCC 27853, CCM 3955; assay: Antibacterial microdilution broth method, P. aeruginosa; format: cell-based; conditions: Pseudomonas aeruginosa
[6] = system: Trichophyton interdigitale 445; assay: Antifungal microdilution broth method, T. interdigitale; format: cell-based
Outline: as §1

[7] = system: Staphylococcus epidermidis H 6966/08; assay: Antibacterial microdilution broth method, S. epidermidis; format: cell-based; conditions: Staphylococcus epidermidis, H6966/08, S. epidermidis
[8] = system: Candida glabrata 20/I; assay: Antifungal microdilution broth method, C. glabrata; format: cell-based; conditions: Nakaseomyces glabratus
Outline: as §1

[9] = system: Mycobacterium avium 330/88; assay: Antimycobacterial micromethod in Šula's medium, M. avium; format: cell-based
[10] = system: Staphylococcus aureus ATCC 29213, CCM 4223; assay: Antibacterial microdilution broth method, S. aureus; format: cell-based
[11] = system: Enterococcus faecalis ATCC 29212, CCM 4224; assay: Antibacterial microdilution broth method, E. faecalis; format: cell-based; conditions: Enterococcus faecalis
[12] = system: Lichtheimia corymbifera 272; assay: Antifungal microdilution broth method, L. corymbifera; format: cell-based
Outline: as §1

[13] = system: Mycobacterium kansasii 235/80; assay: Antimycobacterial micromethod in Šula's medium, M. kansasii 235/80; format: cell-based
[14] = system: Aspergillus fumigatus 231; assay: Antifungal microdilution broth method, A. fumigatus; format: cell-based
Outline: as §1

[15] = system: Escherichia coli ATCC 25922, CCM 3954; assay: Antibacterial microdilution broth method, E. coli; format: cell-based; conditions: Escherichia coli
[16] = system: HepG2 cells; assay: Cytotoxicity, CellTiter 96 assay; format: cell-based, human; conditions: Homo sapiens, HepG2, 24 h, 24 h incubation
Outline: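 HepG2 cells (10,000/well) exposed 24 h at 37 °C, 5% CO2 to compounds in DMSO (≤1% v/v final), triplicates. Viability by tetrazolium-to-formazan reduction (CellTiter 96 AQueous One), absorbance 490 nm after 2 h. IC50 from nonlinear regression versus untreated controls; 10% DMSO defined 0% viability.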

[17] = 168 h, 7 days incubation at 37 °C, read-out: MIC M. kansasii 6509/96 7 d
[18] = 336 h, 14 days incubation at 37 °C, read-out: MIC M. kansasii 6509/96 14 d
[19] = 504 h, 21 days incubation at 37 °C, read-out: MIC M. kansasii 6509/96 21 d
[20] = ATCC44859, 24 h, read-out: MIC CA 24 h
[21] = ATCC44859, 48 h, read-out: MIC CA 48 h
[22] = 24 h incubation, read-out: MIC MRSA 24 h
[23] = 48 h incubation, read-out: MIC MRSA 48 h
[24] = P. aeruginosa, 24 h incubation, read-out: MIC PA 24 h
[25] = P. aeruginosa, 48 h incubation, read-out: MIC PA 48 h
[26] = 24 h incubation, read-out: MIC SE 24 h
[27] = 48 h incubation, read-out: MIC SE 48 h
[28] = 330/88, 336 h, 14 days incubation at 37 °C, read-out: MIC M. avium 330/88 14 d
[29] = 330/88, 504 h, 21 days incubation at 37 °C, read-out: MIC M. avium 330/88 21 d
[30] = 24 h incubation, read-out: MIC SA 24 h
[31] = 48 h incubation, read-out: MIC SA 48 h
[32] = 24 h incubation, read-out: MIC EF 24 h
[33] = 48 h incubation, read-out: MIC EF 48 h
[34] = 235/80, 168 h, 7 days incubation at 37 °C, read-out: MIC M. kansasii 235/80 7 d
[35] = 235/80, 336 h, 14 days incubation at 37 °C, read-out: MIC M. kansasii 235/80 14 d
[36] = 235/80, 504 h, 21 days incubation at 37 °C, read-out: MIC M. kansasii 235/80 21 d
[37] = 24 h incubation, read-out: MIC EC 24 h
[38] = 48 h incubation, read-out: MIC EC 48 h

Row | Structure (SMILES) | MIC [1, 17] [µM] | MIC [1, 18] [µM] | MIC [1, 19] [µM] | MIC KP-E 24 h [2] [µM] | MIC KP-E 48 h [2] [µM] | MIC [3, 20] [µM] | MIC [3, 21] [µM] | MIC [4, 22] [µM] | MIC [4, 23] [µM] | MIC [5, 24] [µM] | MIC [5, 25] [µM] | MIC ([6]; 72 h, read-out: MIC TI 72 h) [µM] | MIC ([6]; 120 h, read-out: MIC TI 120 h) [µM] | MIC [7, 26] [µM] | MIC [7, 27] [µM] | MIC ([8]; 24 h, read-out: MIC CG 24 h) [µM] | MIC ([8]; 48 h, read-out: MIC CG 48 h) [µM] | MIC [9, 28] [µM] | MIC [9, 29] [µM] | MIC [10, 30] [µM] | other results
1 | O=C(O)c1ccc(N=Cc2cc(Cl)cc(I)c2O)cc1 [1p, 4-[(5-Chloro-2-hydroxy-3-iodobenzylidene)amino]benzoic acid] | 250 (≈ 100 µg/mL) | 250 (≈ 100 µg/mL) | 500 (≈ 201 µg/mL) | 125 (≈ 50.2 µg/mL) | 125 (≈ 50.2 µg/mL) | 7.81 (≈ 3.14 µg/mL) | 7.81 (≈ 3.14 µg/mL) | 15.6 (≈ 6.27 µg/mL) | 15.6 (≈ 6.27 µg/mL) | > 500 | > 500 | 7.81 (≈ 3.14 µg/mL) | 7.81 (≈ 3.14 µg/mL) | 31.2 (≈ 12.5 µg/mL) | 31.2 (≈ 12.5 µg/mL) | 7.81 (≈ 3.14 µg/mL) | 7.81 (≈ 3.14 µg/mL) | 500 (≈ 201 µg/mL) | 1000 (≈ 402 µg/mL) | 15.6 (≈ 6.27 µg/mL) | MIC [10, 31]: 15.6 µM (≈ 6.27 µg/mL); MIC [11, 32]: 62.5 µM (≈ 25.1 µg/mL); MIC [11, 33]: 62.5 µM (≈ 25.1 µg/mL); MIC ([12]; 24 h, read-out: MIC LC 24 h): 250 µM (≈ 100 µg/mL); MIC ([12]; 48 h, read-out: MIC LC 48 h): 250 µM (≈ 100 µg/mL); MIC [13, 34]: 250 µM (≈ 100 µg/mL); MIC [13, 35]: 500 µM (≈ 201 µg/mL); MIC [13, 36]: 500 µM (≈ 201 µg/mL); MIC ([14]; 24 h, read-out: MIC AF 24 h): 125 µM (≈ 50.2 µg/mL); MIC ([14]; 48 h, read-out: MIC AF 48 h): 125 µM (≈ 50.2 µg/mL); MIC [15, 37]: 62.5 µM (≈ 25.1 µg/mL); MIC [15, 38]: 62.5 µM (≈ 25.1 µg/mL); IC50 [16]: 53.4 µM
2 | O=C(O)c1ccc(N=Cc2cc(I)cc(I)c2O)cc1 [1q, 4-[(2-Hydroxy-3,5-diiodobenzylidene)amino]benzoic acid] | 250 (≈ 123 µg/mL) | 250 (≈ 123 µg/mL) | 250 (≈ 123 µg/mL) | 500 (≈ 247 µg/mL) | 500 (≈ 247 µg/mL) | 7.81 (≈ 3.85 µg/mL) | 7.81 (≈ 3.85 µg/mL) | 62.5 (≈ 30.8 µg/mL) | 62.5 (≈ 30.8 µg/mL) | > 500 | > 500 | 7.81 (≈ 3.85 µg/mL) | 7.81 (≈ 3.85 µg/mL) | 62.5 (≈ 30.8 µg/mL) | 62.5 (≈ 30.8 µg/mL) | 7.81 (≈ 3.85 µg/mL) | 7.81 (≈ 3.85 µg/mL) | 500 (≈ 247 µg/mL) | 500 (≈ 247 µg/mL) | 62.5 (≈ 30.8 µg/mL) | MIC [10, 31]: 62.5 µM (≈ 30.8 µg/mL); MIC [11, 32]: 500 µM (≈ 247 µg/mL); MIC [11, 33]: 500 µM (≈ 247 µg/mL); MIC ([12]; 24 h, read-out: MIC LC 24 h): 250 µM (≈ 123 µg/mL); MIC ([12]; 48 h, read-out: MIC LC 48 h): 250 µM (≈ 123 µg/mL); MIC [13, 34]: 250 µM (≈ 123 µg/mL); MIC [13, 35]: 500 µM (≈ 247 µg/mL); MIC [13, 36]: 500 µM (≈ 247 µg/mL); MIC ([14]; 24 h, read-out: MIC AF 24 h): 125 µM (≈ 61.6 µg/mL); MIC ([14]; 48 h, read-out: MIC AF 48 h): 125 µM (≈ 61.6 µg/mL); MIC [15, 37]: 500 µM (≈ 247 µg/mL); MIC [15, 38]: 500 µM (≈ 247 µg/mL); IC50 [16]: 57.8 µM
3 | O=C(O)c1ccc(N=Cc2ccc([N+](=O)[O-])o2)cc1 [1r, 4-{[(5-Nitrofuran-2-yl)methylene]amino}benzoic acid] | 125 (≈ 32.5 µg/mL) | 125 (≈ 32.5 µg/mL) | 250 (≈ 65.1 µg/mL) | 500 (≈ 130 µg/mL) | 500 (≈ 130 µg/mL) | 250 (≈ 65.1 µg/mL) | 250 (≈ 65.1 µg/mL) | 62.5 (≈ 16.3 µg/mL) | 62.5 (≈ 16.3 µg/mL) | 500 (≈ 130 µg/mL) | 500 (≈ 130 µg/mL) | 250 (≈ 65.1 µg/mL) | 250 (≈ 65.1 µg/mL) | 125 (≈ 32.5 µg/mL) | 125 (≈ 32.5 µg/mL) | 250 (≈ 65.1 µg/mL) | 250 (≈ 65.1 µg/mL) | 250 (≈ 65.1 µg/mL) | 500 (≈ 130 µg/mL) | 62.5 (≈ 16.3 µg/mL) | MIC ([5]; time not stated, read-out: MIC, P. aeruginosa): 500 µM (≈ 130 µg/mL); MIC [10, 31]: 62.5 µM (≈ 16.3 µg/mL); MIC [11, 32]: > 500 µM; MIC [11, 33]: > 500 µM; MIC ([12]; 24 h, read-out: MIC LC 24 h): > 500 µM; MIC ([12]; 48 h, read-out: MIC LC 48 h): > 500 µM; MIC [13, 34]: 62.5 µM (≈ 16.3 µg/mL); MIC [13, 35]: 125 µM (≈ 32.5 µg/mL); MIC [13, 36]: 250 µM (≈ 65.1 µg/mL); MIC ([14]; 24 h, read-out: MIC AF 24 h): > 500 µM; MIC ([14]; 48 h, read-out: MIC AF 48 h): > 500 µM; MIC [15, 37]: > 500 µM; MIC [15, 38]: > 500 µM; IC50 [16]: 15 µM
4 | O=C(O)c1ccc(NCc2ccccc2O)cc1 [1u, 4-[(2-Hydroxybenzyl)amino]benzoic acid] | 1000 (≈ 243 µg/mL) | 1000 (≈ 243 µg/mL) | 1000 (≈ 243 µg/mL) | >500 | >500 | > 500 | > 500 | > 500 | > 500 | > 500 | > 500 | > 500 | > 500 | > 500 | > 500 | > 500 | > 500 | > 1000 | > 1000 | > 500 | MIC [10, 31]: > 500 µM; MIC [11, 32]: > 500 µM; MIC [11, 33]: > 500 µM; MIC ([12]; 24 h, read-out: MIC LC 24 h): > 500 µM; MIC ([12]; 48 h, read-out: MIC LC 48 h): > 500 µM; MIC [13, 34]: 1000 µM (≈ 243 µg/mL); MIC [13, 35]: 1000 µM (≈ 243 µg/mL); MIC [13, 36]: 1000 µM (≈ 243 µg/mL); MIC ([14]; 24 h, read-out: MIC AF 24 h): > 500 µM; MIC ([14]; 48 h, read-out: MIC AF 48 h): > 500 µM; MIC [15, 37]: > 500 µM; MIC [15, 38]: > 500 µM; IC50 [16]: > 500 µM
